Test results as given in US20260206760A1, “AZOLE COMPOUNDS FOR CONTROLLING AND COMBATING INVERTEBRATE PESTS” (FMC CORPORATION, priority 2022, published 2026).

Key:
Assay type in all cases: in vivo
[1] = test system: diamondback moth (Plutella xylostella (L.)); details: sprayed at 250 ppm; neonate larvae; assessed after 6 days; very good to excellent levels of control efficacy
Protocol: (§1) Test compounds were formulated using a solution containing 10% acetone, 90% water and 300 ppm Activator 90® non-ionic surfactant (Loveland Products, Loveland, Colorado, USA). The formulated compounds were applied in 1 mL of liquid through an atomizer nozzle positioned 1.27 cm (0.5 inches) above the top of each test unit. Test compounds were sprayed at the rates indicated, and each test was replicated three times.
For evaluating control of diamondback moth (Plutella xylostella (L.)) the test unit consisted of a small open container with a 12-14-day-old mustard plant inside. This was pre-infested with ~50 neonate larvae that were dispensed into the test unit via corn cob grits using an inoculator. The larvae moved onto the test plant after being dispensed into the test unit.
Test compounds were formulated and sprayed at 250 and/or 50 ppm. After spraying of the formulated test compound, each test unit was allowed to dry for 1 hour and then a black, screened cap was placed on top. The test units were held for 6 days in a growth chamber at 25° C. and 70% relative humidity. Plant feeding damage was then visually assessed based on foliage consumed, and larvae were assessed for mortality.

[2] = test system: corn planthopper (Peregrinus maidis (Ashmead)); assay: whole plant or invertebrate; details: 144 h, sprayed at 50 ppm, nymphs, assessed after 6 days
Protocol: as §1
For evaluating control of corn planthopper (Peregrinus maidis (Ashmead)) through contact and/or systemic means, the test unit consisted of a small open container with a 3-4-day-old corn (maize) plant inside. White sand was added to the top of the soil prior to application of the test compound.
Test compounds were formulated and sprayed at 250 and/or 50 ppm and/or 10 ppm. After spraying of the formulated test compound, the test units were allowed to dry for 1 h before they were post-infested with ~15-20 nymphs (18-to-21-day-old). A black, screened cap was placed on the top of each test unit, and the test units were held for 6 days in a growth chamber at 22-24° C. and 50-70% relative humidity. Each test unit was then visually assessed for insect mortality.

[3] = test system: cotton melon aphid (Aphis gossypii (Glover)); assay: whole plant or invertebrate; details: 144 h, assessed after 6 days; for mortality at 50 ppm: sprayed at 50 ppm
Protocol: as §1
For evaluating control of cotton melon aphid (Aphis gossypii (Glover)) through contact and/or systemic means, the test unit consisted of a small open container with a 5-day-old okra plant inside. This was pre-infested with 30-40 insects on a piece of leaf according to the cut-leaf method, and the soil of the test unit was covered with a layer of sand.
Test compounds were formulated and sprayed at 250 and/or 50 ppm. After spraying, the test units were maintained in a growth chamber for 6 days at 19° C. and 70% relative humidity. Each test unit was then visually assessed for insect mortality.

[4] = test system: green peach aphid (Myzus persicae (Sulzer)); assay: Test B: control of green peach aphid, spray on radish plant, visual mortality; details: 144 h, assessed after 6 days; for mortality at 50 ppm: sprayed at 50 ppm
Protocol: as §1
For evaluating control of green peach aphid (Myzus persicae (Sulzer)) through contact and/or systemic means, the test unit consisted of a small open container with a 12-15-day-old radish plant inside. This was pre-infested by placing on a leaf of the test plant 30-40 aphids on a piece of leaf excised from a culture plant (cut-leaf method). The aphids moved onto the test plant as the leaf piece desiccated. After pre-infestation, the soil of the test unit was covered with a layer of sand.
Test compounds were formulated and sprayed at 250 and/or 50 ppm. After spraying of the formulated test compound, each test unit was allowed to dry for 1 hour and then a black, screened cap was placed on top. The test units were held for 6 days in a growth chamber at 19-21° C. and 50-70% relative humidity. Each test unit was then visually assessed for insect mortality.

[5] = test system: sweetpotato whitefly (Bemisia tabaci (Gennadius)); assay: whole plant or invertebrate; details: 312 h, sprayed at 50 ppm, eggs on cotton leaf, assessed after 13 days
Protocol: as §1
For evaluating control of the sweetpotato whitefly (Bemisia tabaci (Gennadius)) through contact and/or systemic means, the test unit consisted of a small open container with a 12-14-day-old cotton plant inside. Prior to the spray application, both cotyledons were removed from the plant, leaving one true leaf for the assay. Adult whiteflies were allowed to lay eggs on the plant and then were removed from the test unit. Cotton plants infested with at least 15 eggs were submitted to the test for spraying.
Test compounds were formulated and sprayed at 50 and/or 10 ppm. After spraying, the test units were allowed to dry for 1 hour. The cylinders were then removed, and the units were taken to a growth chamber and held for 13 days at 28° C. and 50-70% relative humidity. Each test unit was then visually assessed for insect mortality.

SMILES	control efficacy (feeding damage and/or mortality) [1]	mortality at 50 ppm [2]	mortality at 50 ppm [3]	mortality at 50 ppm [4]	mortality at 250 ppm ([3]; sprayed at 250 ppm)	mortality at 250 ppm ([4]; sprayed at 250 ppm)	mortality at 50 ppm [5]
Fc1cncc(-n2ccnn2)c1C1CC1c1ccc(C(F)(F)F)cc1 (stereo not shown) [Compound 3, 3-fluoro-5-(triazol-1-yl)-4-[2-[4-(trifluoromethyl)phenyl]cyclopropyl]pyridine]	40% or less feeding damage and/or 100% mortality	–	–	–	–	–	–
FC(F)(F)Oc1ccc(/C=C/c2ccncc2-n2nccn2)cc1 [Compound 1, 3-(1,2,3-triazol-2-yl)-4-[(1E)-2-[4-(trifluoromethoxy)phenyl]ethenyl]pyridine]	–	≥ 80%	≥ 80%	≥ 80%	–	–	–
Fc1cncc(-n2nccn2)c1C1CC1c1ccc(C(F)(F)F)cc1 (stereo not shown) [Compound 4, 3-fluoro-5-(triazol-2-yl)-4-[2-[4-(trifluoromethyl)phenyl]cyclopropyl]pyridine]	40% or less feeding damage and/or 100% mortality	–	≥ 80%	≥ 80%	≥ 80%	≥ 80%	≥ 70%
